Experimental data as given in patent US20030092684A1, “Compositions and methods for treating hemorrhagic virus infections and other disorders” (priority 1999, published 2003).

Columns and labels:
Dengue virus type 2 = assay: Dengue virus infection treated with tetracycline compounds (Example 4): mortality; assay type: in vivo, BALB/c mice; settings: for % (survival): 20 mice, 20 mg/kg
TNF-α and IL-1β = assay: Serum TNF and IL-1 in Dengue infected mice (Example 4); assay type: in vivo, BALB/c mice; settings: for level of the cytokines in the serum versus control A2 group: 20 mg/kg twice per day from day -3 until day 8
Mononuclear human cells = assay: In vitro activation of mononuclear human cells by antibiotics: IL-1RA and sTNFrI production; assay type: cell-based; settings: 0.06 mg/ml, activation for 2 hours
IL-1RA and sTNFrl = IL-1RA and sTNFrl in human donor serum after oral antibiotic stimulation; assay type: in vivo
[1] = 20 mg/kg intramuscularly twice per day from day -3 until day 8
[2] = 20 mg/kg intramuscularly twice per day from day -3 until day 8, listed as terramycine
[3] = day 0, 20 mg/kg intramuscularly twice per day from day -3 until day 8
[4] = day 1, 20 mg/kg intramuscularly twice per day from day -3 until day 8
[5] = day 3, 20 mg/kg intramuscularly twice per day from day -3 until day 8
[6] = day 5, 20 mg/kg intramuscularly twice per day from day -3 until day 8
[7] = day 6, 20 mg/kg intramuscularly twice per day from day -3 until day 8
[8] = day 7, 20 mg/kg intramuscularly twice per day from day -3 until day 8
[9] = day 8, 20 mg/kg intramuscularly twice per day from day -3 until day 8
[10] = day 12, 20 mg/kg intramuscularly twice per day from day -3 until day 8
[11] = day -1, 20 mg/kg intramuscularly twice per day from day -3 until day 8
[12] = 150 mg orally twice a day, blood taken on the second and third day after beginning
[13] = after stimulation, 2 persons, on the 24th hour
[14] = 20 mg/kg orally twice per day from day -3 until day 8
[15] = 20 mg/kg orally twice per day from day -3 until day 8, listed as vibromycine
[16] = day 0, 20 mg/kg orally twice per day from day -3 until day 8
[17] = day 1, 20 mg/kg orally twice per day from day -3 until day 8
[18] = day 3, 20 mg/kg orally twice per day from day -3 until day 8
[19] = day 5, 20 mg/kg orally twice per day from day -3 until day 8
[20] = day 6, 20 mg/kg orally twice per day from day -3 until day 8
[21] = day 7, 20 mg/kg orally twice per day from day -3 until day 8
[22] = day 8, 20 mg/kg orally twice per day from day -3 until day 8
[23] = day 12, 20 mg/kg orally twice per day from day -3 until day 8
[24] = day -1, 20 mg/kg orally twice per day from day -3 until day 8

`CN(C)[C@@H]1C(O)=C(C(N)=O)C(=O)[C@@]2(O)C(O)=C3C(=O)c4c(O)cccc4[C@@](C)(O)[C@H]3[C@H](O)[C@@H]12` [Terramycine] was tested, and the m.t.d. (Dengue virus type 2; [1]) was “m.t.d. = 6.53 days”, the m.t.d. (Dengue virus type 2; [2]) was 6.53 days and the “% (survival)” value (Dengue virus type 2; [1]) was “% (survival) 15”. The “% (survival)” value (Dengue virus type 2; [2]) was 15%, the Survival/total amount (Dengue virus type 2; [3]) was 20/20 and the Survival/total amount (Dengue virus type 2; [4]) was 20/20. The Survival/total amount (Dengue virus type 2; [5]) was 20/20, the Survival/total amount (Dengue virus type 2; [6]) was 19/20 and the Survival/total amount (Dengue virus type 2; [7]) was 11/20. The Survival/total amount (Dengue virus type 2; [8]) was 6/20, the Survival/total amount (Dengue virus type 2; [9]) was 3/20 and the Survival/total amount (Dengue virus type 2; [10]) was 3/20. For the same molecule, the Survival/total amount (Dengue virus type 2; [11]) was 20/20, the “level of the cytokines in the serum versus control A2 group” value (TNF-α and IL-1β) was “statistically lower” and the “increase of the concentration of IL-1” value (TNF-α and IL-1β; by day 3 of the disease, stayed until day 7, 20 mg/kg intramuscularly twice per day) was 16 fold. The “increase of the concentration of TNF” value (TNF-α and IL-1β; by day 6 of the disease, 20 mg/kg intramuscularly twice per day) was 2 fold, the IL-1 (TNF-α and IL-1β; [3]) was 7.0 pg/mL and the TNF (TNF-α and IL-1β; [3]) was 17.0 pg/mL. For the same molecule, the IL-1 (TNF-α and IL-1β; [4]) was 21.8 pg/mL, the TNF (TNF-α and IL-1β; [4]) was 15.2 pg/mL and the IL-1 (TNF-α and IL-1β; [5]) was 112.0 pg/mL. For the same molecule, the TNF (TNF-α and IL-1β; [5]) was 25.6 pg/mL, the IL-1 (TNF-α and IL-1β; [6]) was 84.0 pg/mL and the TNF (TNF-α and IL-1β; [6]) was 26.0 pg/mL. For the same molecule, the IL-1 (TNF-α and IL-1β; [7]) was 80.0 pg/mL, the TNF (TNF-α and IL-1β; [7]) was 36.2 pg/mL and the IL-1 (TNF-α and IL-1β; [8]) was 76.0 pg/mL. For the same molecule, the TNF (TNF-α and IL-1β; [8]) was 28.0 pg/mL, the IL-1 (TNF-α and IL-1β; [9]) was 42.0 pg/mL and the TNF (TNF-α and IL-1β; [9]) was 20.0 pg/mL. It also gave an IL-1 (TNF-α and IL-1β; [10]) of 16.0 pg/mL, a TNF (TNF-α and IL-1β; [10]) of 18.0 pg/mL and an IL-1 (TNF-α and IL-1β; [11]) of 7.2 pg/mL. For the same molecule, the TNF (TNF-α and IL-1β; [11]) was 18.8 pg/mL, the IL-1RA (Mononuclear human cells; 0 hours) was 28 + 1.6 pg/ml and the sTNFrI (Mononuclear human cells; 0 hours) was 18 + 1.4 pg/ml. The IL-1RA (Mononuclear human cells; 3 hours) was 93 + 6.2 pg/ml, the sTNFrI (Mononuclear human cells; 3 hours) was 313 + 10.4 pg/ml and the IL-1RA (Mononuclear human cells; 6 hours) was 220 + 9.4 pg/ml. For the same molecule, the sTNFrI (Mononuclear human cells; 6 hours) was 224 + 9.2 pg/ml, the IL-1RA (Mononuclear human cells; 24 hours) was 185 + 8.6 pg/ml and the sTNFrI (Mononuclear human cells; 24 hours) was 264 + 9.6 pg/ml.
`CC1c2cccc(O)c2C(=O)C2=C(O)C3(O)C(=O)C(C(N)=O)=C(O)C(N(C)C)C3C(O)C21` (stereo not shown) [Vybromycine] was tested, and the “concentration in the human serum of IL-1RA” value (IL-1RA and sTNFrl; [12]) was 184 pg/mL, the “concentration in the human serum of sTNFrl” value (IL-1RA and sTNFrl; [12]) was 950 pg/mL and the “IL-1RA in the donor serum” value (IL-1RA and sTNFrl; [13]) was 126.8 ± 6.8 pg/mL. The “sTNFrl in the donor serum” value (IL-1RA and sTNFrl; [13]) was 970 ± 28.6 pg/mL, the “IL-1RA in the donor serum” value (IL-1RA and sTNFrl; before the stimulation) was 20 ± 2.2 pg/mL and the “sTNFrl in the donor serum” value (IL-1RA and sTNFrl; before the stimulation) was 22 ± 3.4 pg/mL. The m.t.d. (Dengue virus type 2; [14]) was “m.t.d. = 6.7 days”, the m.t.d. (Dengue virus type 2; [15]) was 6.7 days and the “% (survival)” value (Dengue virus type 2; [14]) was “% (survival) 20”. For the same molecule, the “% (survival)” value (Dengue virus type 2; [15]) was 20%, the Survival/total amount (Dengue virus type 2; [16]) was 20/20 and the Survival/total amount (Dengue virus type 2; [17]) was 20/20. The Survival/total amount (Dengue virus type 2; [18]) was 20/20, the Survival/total amount (Dengue virus type 2; [19]) was 19/20 and the Survival/total amount (Dengue virus type 2; [20]) was 15/20. For the same molecule, the Survival/total amount (Dengue virus type 2; [21]) was 5/20, the Survival/total amount (Dengue virus type 2; [22]) was 4/20 and the Survival/total amount (Dengue virus type 2; [23]) was 4/20. The Survival/total amount (Dengue virus type 2; [24]) was 20/20, the “increase of the concentration of TNF” value (TNF-α and IL-1β; 20 mg/kg orally twice per day) was 3 fold and the “level of the cytokines in the serum versus control A2 group” value (TNF-α and IL-1β) was “statistically lower”. For the same molecule, the “increase of the concentration of IL-1” value (TNF-α and IL-1β; by day 6 of the infection, 20 mg/kg orally twice per day) was 12 fold, the IL-1 (TNF-α and IL-1β; [16]) was 7.0 pg/mL and the TNF (TNF-α and IL-1β; [16]) was 18.8 pg/mL. It also gave an IL-1 (TNF-α and IL-1β; [17]) of 11.6 pg/mL, a TNF (TNF-α and IL-1β; [17]) of 12.6 pg/mL and an IL-1 (TNF-α and IL-1β; [18]) of 60.0 pg/mL. The TNF (TNF-α and IL-1β; [18]) was 10.8 pg/mL, the IL-1 (TNF-α and IL-1β; [19]) was 62.0 pg/mL and the TNF (TNF-α and IL-1β; [19]) was 16.0 pg/mL. For the same molecule, the IL-1 (TNF-α and IL-1β; [20]) was 84.4 pg/mL, the TNF (TNF-α and IL-1β; [20]) was 34.0 pg/mL and the IL-1 (TNF-α and IL-1β; [21]) was 64.0 pg/mL. It also gave a TNF (TNF-α and IL-1β; [21]) of 30.6 pg/mL, an IL-1 (TNF-α and IL-1β; [22]) of 30.0 pg/mL and a TNF (TNF-α and IL-1β; [22]) of 26.0 pg/mL. It also gave an IL-1 (TNF-α and IL-1β; [23]) of 17.8 pg/mL, a TNF (TNF-α and IL-1β; [23]) of 22.2 pg/mL and an IL-1 (TNF-α and IL-1β; [24]) of 7.0 pg/mL. It also gave a TNF (TNF-α and IL-1β; [24]) of 20.4 pg/mL.
